How the values were obtained:
HepG2 cells [1] = experiment: CCK-8 proliferation of HepG2 with peptide alone; format: cell-based; settings: concentrations below 200 µM, 24 h, CCK-8, n = 3
Description: HepG2 cells were cultured in DMEM supplemented with penicillin at a concentration of 100 U/mL, streptomycin at 100 μg/mL, and fetal bovine serum at a volume ratio of 10% under conditions of 37 °C and 5% CO2. A total of 2 ×10^4 cells per well were seeded into a 96-well plate for overnight culture. The upper layer of medium was carefully aspirated, and 200 μL of different concentrations of oligopeptide solution (50 μM, 100 μM, 200 μM) prepared with cell complete medium was added to each well. Twenty-four hours later, the proliferation rate of the cells was measured according to the instructions of the CCK-8 kit, and the appropriate concentration of oligopeptide was screened out.

HepG2 cells [2] = experiment: Cell viability of PANa-induced HepG2 (CCK-8); format: cell-based; settings: 100 μM peptide 4 h, then 350 µM PANa 24 h, **** p < 0.0001 vs PANa group
Description: A total of 2 × 10^4 cells/well were inoculated in 96-well plates for culture at 37 °C and 5% CO2. Following this period, the cells received treatment with 200 μL medium containing 100 μM LR-7, KA-8, or PG-7 for 4 h before adding 350 μM PANa to each well. After incubation for an additional 24 h, the cell proliferation rates were assessed using the CCK-8 assay protocols.

catalase (CAT) = experiment: Catalase (CAT) activity in HepG2; format: cell-based; settings: 100 μM peptide 4 h, then 350 µM PANa 24 h, HepG2
Description: (§1) After incubation, cells were treated with 100 μM of peptides for 4 h. After removing the media, PANa was added for 24 h of incubation. The levels of catalase (CAT), superoxide dismutase (SOD), glutathione peroxidase (GSH-Px), malondialdehyde (MDA), triacylglycerol (TG), total cholesterol (TCHO), low-density lipoprotein cholesterol (LDL-C), and high-density lipoprotein cholesterol (HDL-C) in the supernatant were determined according to the kit instructions.

[3] = system: superoxide dismutase (SOD); experiment: Superoxide dismutase (SOD) activity in HepG2; format: cell-based; settings: 100 μM peptide 4 h, then 350 µM PANa 24 h
Description: as §1

[4] = system: glutathione peroxidase (GSH-Px); experiment: Glutathione peroxidase (GSH-Px) activity in HepG2; format: cell-based; settings: 100 μM peptide 4 h, then 350 µM PANa 24 h, HepG2
Description: as §1

malondialdehyde (MDA) = experiment: Malondialdehyde (MDA) level in HepG2; format: cell-based; settings: 100 μM peptide 4 h, then 350 µM PANa 24 h, HepG2
Description: as §1

Nrf2 = experiment: Western blot Nrf2; format: cell-based; settings: 100 μM peptide 4 h, then 350 µM PANa 24 h, HepG2, Western blot
Description: (§2) After treatment, cells were washed with pre-chilled PBS and lysed with ice-cold lysis buffer for 30 min. The supernatant was collected after centrifugation at 12,000× g for 10 min and stored at −80 °C. Protein concentration was determined using a BCA protein assay kit. Equal amounts of protein (20–40 µg) were subjected to 10% sodium dodecyl sulfate-polyacrylamide gel electrophoresis (SDS-PAGE) and transferred to PVDF membranes (Polyvinylidene Fluoride, Merck, Darmstadt, Germany). Non-specific binding sites were blocked with 5% bovine serum albumin (BSA) solution at room temperature for 1 h, followed by incubation with the primary antibody at 4 °C overnight. After washing with TBST (3 times, 10 min/time), the membrane was incubated with the secondary antibody at room temperature for 1 h. Following further washing with TBST (3 times, 10 min/time), antibody signals were detected using a Western blot development system. The dilution ratios for the internal reference protein, vascular endothelial injury-related proteins, and oxidative stress-related pathway proteins were prepared according to the manufacturer’s instructions.

HO-1 = experiment: Western blot HO-1; format: cell-based; settings: 100 μM peptide 4 h, then 350 µM PANa 24 h, HepG2, Western blot
Description: as §2

NQO1 = experiment: Western blot NQO1; format: cell-based; settings: 100 μM peptide 4 h, then 350 µM PANa 24 h, HepG2, Western blot
Description: as §2

triacylglycerol (TG) = experiment: Triacylglycerol (TG) level in HepG2; format: cell-based; settings: 100 μM peptide 4 h, then 350 µM PANa 24 h, HepG2
Description: as §1

total cholesterol (TCHO) = experiment: Total cholesterol (TCHO) level in HepG2; format: cell-based; settings: 100 μM peptide 4 h, then 350 µM PANa 24 h, HepG2
Description: as §1

[5] = system: low-density lipoprotein cholesterol (LDL-C); experiment: LDL-C level in HepG2; format: cell-based; settings: 100 μM peptide 4 h, then 350 µM PANa 24 h, HepG2
Description: as §1

[6] = system: high-density lipoprotein cholesterol (HDL-C); experiment: HDL-C level in HepG2; format: cell-based; settings: 100 μM peptide 4 h, then 350 µM PANa 24 h, HepG2
Description: as §1

[7] = system: fatty acid synthase (FASN); experiment: Western blot FASN; format: cell-based; settings: 100 μM peptide 4 h, then 350 µM PANa 24 h, HepG2, Western blot
Description: as §2

[8] = system: phosphorylated ACC1 (p-ACC1); experiment: Western blot p-ACC1; format: cell-based; settings: 100 μM peptide 4 h, then 350 µM PANa 24 h, HepG2, Western blot
Description: as §2

[9] = system: proteins associated with lipid metabolism; experiment: Western blot, proteins associated with lipid metabolism overall; format: cell-based; settings: 100 μM peptide 4 h, then 350 µM PANa 24 h, HepG2, Western blot
Description: as §2

pancreatic lipase = experiment: Pancreatic lipase activity inhibition; format: biochemical; settings: compared with orlistat (positive control); 4-nitrophenyl palmitate substrate, lipase 1.2 mg/mL, peptide 100 μM, Tris-HCl pH 8.0, 37 °C, absorbance 405 nm, three parallel wells
Description: A working substrate solution consisting of 4-nitrophenyl palmitate dissolved in sodium acetate solution (containing 1% Triton-X 100, 100 mL, 5 mM, pH 5.0) was prepared. Enzyme powder was dissolved in Tris-HCl buffer (pH 8.0, 37 °C). This mixture was incubated at 4 °C for 2 h before centrifugation at 5000 r/min for 5 min, yielding the supernatant used to prepare a pancreatic lipase solution of 1.2 mg/mL. Orlistat at a concentration of 1 mg/mL in Tris-HCl buffer (pH 8.0; 37 °C) was prepared alongside DMSO to reach a concentration of 350 μg/mL peptide solution. The peptide solution of 100 μM was prepared with Tris-HCl buffer (pH = 8.0, 37 °C). The absorbance was measured at 405 nm, and the inhibition rate was measured in parallel with three holes due to the methodology of Franco et al..

HUVECs = settings: earlier work, ref [21]; cited from earlier work
From the text: Harpadon nehereus, a nutrient-rich marine species indigenous to the Indo-Pacific region, remains underexploited despite its significant collagen content (18–22% wet weight). Harpadon nehereus serves as an economical source that is rich in protein and trace elements. Its proteins and derived peptides offer numerous health benefits including immune enhancement, blood pressure reduction, cardiovascular protection, and inflammation mitigation. In prior research, we successfully isolated three novel peptides LALFVPR (LR-7), KLHDEEVA (KA-8), and PSRILYG (PG-7) from the enzymatic hydrol ... || Studies have confirmed that oxidative stress and lipid metabolism disorders are significant factors in the occurrence and development of hyperlipidemia Dietary intervention is a crucial auxiliary strategy for the management of hyperlipidemia. Collagen peptides have been extensively used as a nutritional intervention in the treatment of various diseases due to their notable antioxidant, anti-inflammatory, and hypolipidemic activities. […] Anoth ...

FASN and ACC1 = settings: ref [39]; cited from earlier work
From the text: Lipid metabolism, including lipolysis, lipogenesis, and lipid transport, determines the lipid levels in the body. FASN and ACC are two significant lipid synthetases that play a key role in lipid accumulation. PANa primarily influences hepatic lipogenesis through the modulation of FASN and ACC1 expression. […] CPT1 and ATGL are closely linked to lipolysis and are crucial for regulating lipid levels. ...

Nrf2 pathway = settings: ref [34]; cited from earlier work
From the text: PANa triggers the buildup of reactive oxygen species (ROS) within cells, resulting in oxidative stress and subsequent cellular injury. Antioxidant enzymes are essential for alleviating oxidative stress.

Row | Molecule | effect on apoptosis of HepG2 cells (HepG2 cells [1]) | cell viability of PANa-exposed HepG2 (HepG2 cells [2]) | CAT activity, reversal of PANa-induced reduction (catalase (CAT)) | SOD activity, reversal of PANa-induced reduction [3] | GSH-Px activity, reversal of PANa-induced reduction [4] | MDA level (malondialdehyde (MDA)) | Nrf2 protein level (Nrf2) | HO-1 protein level (HO-1) | NQO1 protein level (NQO1) | TG, effect on PANa-induced increase (triacylglycerol (TG)) | TCHO, effect on PANa-induced increase (total cholesterol (TCHO)) | LDL-C, effect on PANa-induced increase [5] | HDL-C, effect on PANa-induced decrease [6] | FASN expression vs PANa group [7] | p-ACC1 level vs PANa group [8] | abnormal expression of proteins associated with lipid metabolism by PANa (FASN, ATGL, CPT1, p-AMPKα) [9] | inhibition of pancreatic lipase activity (pancreatic lipase) | effect on angiotensin II-induced dysfunctions within HUVECs (HUVECs) | expression levels of FASN and ACC1 / lipid accumulation (FASN and ACC1) | hepatic steatosis, oxidative stress, inflammatory cell infiltration and fibrosis via Nrf2 pathway (Nrf2 pathway)
1 | PSRILYG [PG-7, peptide from Harpadon nehereus bone collagen enzymatic hydrolysates] | no effect on the apoptosis of HepG2 cells | notably enhanced the cell viability | effectively reversed the reduction | effectively reversed the reduction | effectively reversed the reduction | significantly decreased the MDA levels | significant increases in the levels | significant increases in the levels | significant increases in the levels | notably reversed the PANa-induced increases | notably reversed the PANa-induced increases | notably reversed the PANa-induced increases | notably reversed | FASN expression decreased | p-ACC1 levels increased significantly | significantly reversed | less effective than orlistat | improve angiotensin II-induced dysfunctions within HUVECs | – | –
2 | KLHDEEVA [KA-8, peptide from Harpadon nehereus bone collagen enzymatic hydrolysates] | no effect on the apoptosis of HepG2 cells | notably enhanced the cell viability | effectively reversed the reduction | effectively reversed the reduction | effectively reversed the reduction | significantly decreased the MDA levels | significant increases in the levels | significant increases in the levels | significant increases in the levels | notably reversed the PANa-induced increases | notably reversed the PANa-induced increases | notably reversed the PANa-induced increases | notably reversed | FASN expression decreased | p-ACC1 levels increased significantly | significantly reversed | comparable results to orlistat | – | – | –
3 | Oc1ccc2c(c1)OCO2 [sesamol (SEM), sesamol] | – | – | – | – | – | – | – | – | – | – | – | – | – | – | – | – | – | – | influence lipid accumulation by decreasing the expression levels of FASN and ACC1 | –
4 | COc1ccc([C@@H]2CC(=O)c3c(O)cc(O)cc3O2)cc1O [hesperetin] | – | – | – | – | – | – | – | – | – | – | – | – | – | – | – | – | – | – | – | reduce hepatic steatosis, alleviate oxidative stress, decrease inflammatory cell infiltration, and mitigate fibrosis through activation of the Nrf2 pathway

Reference: article PMC11943913, “Peptides from Harpadon nehereus Bone Ameliorate Sodium Palmitate-Induced HepG2 Lipotoxicity by Regulating Oxidative Stress and Lipid Metabolism” (Marine Drugs, 2025)
